Measurements as given in ChEMBL document CHEMBL1201862, “PubChem BioAssay data set” (2004).
The source made the active and inactive calls.

How the values were obtained:
[1] = target: T1, Mannose-6-phosphate isomerase (Homo sapiens, UniProt P34949); experiment: inhibitors of human PMI, primary screen, biochemical, fluorescence intensity, coupled assay (AID 1209)
T1 sequence (P34949 whole entry): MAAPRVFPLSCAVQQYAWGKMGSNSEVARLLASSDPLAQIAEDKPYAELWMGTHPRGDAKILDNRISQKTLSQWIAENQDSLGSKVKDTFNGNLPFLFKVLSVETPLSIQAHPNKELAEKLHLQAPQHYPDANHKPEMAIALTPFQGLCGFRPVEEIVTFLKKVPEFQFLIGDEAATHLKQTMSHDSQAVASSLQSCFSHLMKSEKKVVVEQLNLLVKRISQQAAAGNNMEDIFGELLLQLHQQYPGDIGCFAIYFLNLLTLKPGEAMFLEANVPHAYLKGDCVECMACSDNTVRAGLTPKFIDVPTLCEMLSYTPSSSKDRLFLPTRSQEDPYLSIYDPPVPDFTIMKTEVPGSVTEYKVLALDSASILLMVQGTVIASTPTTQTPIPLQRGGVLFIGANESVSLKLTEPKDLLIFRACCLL

HT-1080 = experiment: cytotoxicity in HT1080 fibrosarcoma cells, cell-based, fluorescence readout (AID 620); assay type: functional; conditions: Homo sapiens
[2] = target: T2, Luciferin 4-monooxygenase (Photinus pyralis, UniProt P08659); experiment: Counter Screen for Luciferase-based Assay Positives. [Related pubchem assays: 620, 618, 411 ]
[3] = Luminescence Cell-Based Dose Confirmation HTS to Identify Inhibitors of Platelet Dense Granule Release. [Related pubchem assays: 1663 (Primary HTS), 1678 (Summary of Project)]; assay type: functional
Protein skinhead-1 = target: T3, Protein skinhead-1 (Caenorhabditis elegans, UniProt P34707); assay type: functional
T3 sequence (P34707 whole entry): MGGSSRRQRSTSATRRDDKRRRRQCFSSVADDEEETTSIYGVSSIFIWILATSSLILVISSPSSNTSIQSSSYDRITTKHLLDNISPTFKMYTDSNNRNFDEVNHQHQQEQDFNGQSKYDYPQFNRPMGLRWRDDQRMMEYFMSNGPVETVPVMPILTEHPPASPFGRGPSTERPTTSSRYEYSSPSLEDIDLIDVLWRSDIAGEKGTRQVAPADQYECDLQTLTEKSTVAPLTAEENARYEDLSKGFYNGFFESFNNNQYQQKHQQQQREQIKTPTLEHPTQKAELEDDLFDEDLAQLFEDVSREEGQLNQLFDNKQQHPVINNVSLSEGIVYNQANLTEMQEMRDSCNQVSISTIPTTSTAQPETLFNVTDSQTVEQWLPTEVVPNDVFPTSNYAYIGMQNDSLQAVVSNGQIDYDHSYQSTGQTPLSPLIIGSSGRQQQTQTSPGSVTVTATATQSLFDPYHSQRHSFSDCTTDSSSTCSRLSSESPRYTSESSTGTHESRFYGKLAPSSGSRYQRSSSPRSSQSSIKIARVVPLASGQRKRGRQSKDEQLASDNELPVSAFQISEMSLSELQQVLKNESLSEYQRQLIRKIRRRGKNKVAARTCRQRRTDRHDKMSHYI

[4] = target: T2, Luciferin 4-monooxygenase; experiment: firefly luciferase enzyme inhibitors, dose response, biochemical, luminescence (AID 1891)
[5] = target: Melanin-concentrating hormone receptor 1 (Homo sapiens, UniProt Q99705); experiment: Fluorescence-based counterscreen for antagonists of the G-protein coupled receptor 7 (GPR7): cell-based high throughput dose response assay to identify antagonists of the melanin-concentrating hormone receptor 1 (MCHR1).; assay type: functional
[6] = target: Lytic switch protein BZLF1 (Epstein-Barr virus (strain B95-8) (HHV-4) (Human herpesvirus 4), UniProt P03206); experiment: EBV ZTA inhibitors, dose response, counter-screen for EBNA-1 inhibitor project, biochemical, fluorescence polarization, Epstein-Barr virus, 1536-well (AID 2377); parameters: species or system human gammaherpesvirus 4;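 also: fluorescence polarization of Cy5-labelled ZRE DNA probe bound by purified Zta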
[7] = target: Epstein-Barr nuclear antigen 1 (Epstein-Barr virus (strain B95-8) (HHV-4) (Human herpesvirus 4), UniProt P03211); experiment: EBNA-1 inhibitors, dose response, biochemical, fluorescence polarization, 1536-well (AID 2381); parameters: species or system human gammaherpesvirus 4;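 also: fluorescence polarization of a Cy5 DNA probe bound by EBNA-1 protein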
Estrogen receptor beta = Estrogen receptor beta (Homo sapiens, UniProt Q92731); experiment: ERβ–SRC-3 coactivator interaction inhibitors, confirmation, orthogonal assay, biochemical, ELISA, streptavidin-HRP readout (AID 1060)
Leucine aminopeptidase = target: T4, Leucine aminopeptidase (Plasmodium falciparum 3D7, UniProt Q8IL11); experiment: P. falciparum M17LAP inhibitors, primary screen, biochemical, fluorogenic H-Leu-NHMec substrate, 1536-well (AID 1619); assay type: functional
T4 sequence (Q8IL11 whole entry): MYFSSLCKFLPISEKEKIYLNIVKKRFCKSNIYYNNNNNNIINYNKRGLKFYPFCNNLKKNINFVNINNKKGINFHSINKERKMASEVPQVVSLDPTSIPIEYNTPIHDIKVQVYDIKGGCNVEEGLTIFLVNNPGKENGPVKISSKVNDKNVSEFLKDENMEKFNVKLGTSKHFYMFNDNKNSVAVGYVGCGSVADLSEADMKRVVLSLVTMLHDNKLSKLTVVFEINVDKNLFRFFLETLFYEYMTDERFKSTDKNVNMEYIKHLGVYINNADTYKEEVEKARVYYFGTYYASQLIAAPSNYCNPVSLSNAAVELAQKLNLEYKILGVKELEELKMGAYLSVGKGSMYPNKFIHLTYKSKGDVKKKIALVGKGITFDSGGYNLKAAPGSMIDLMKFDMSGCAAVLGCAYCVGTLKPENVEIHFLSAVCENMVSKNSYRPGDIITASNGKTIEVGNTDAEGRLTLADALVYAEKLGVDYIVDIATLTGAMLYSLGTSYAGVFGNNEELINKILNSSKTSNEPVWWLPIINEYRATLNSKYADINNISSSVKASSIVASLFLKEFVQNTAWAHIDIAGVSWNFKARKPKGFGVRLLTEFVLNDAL

Procathepsin L = Procathepsin L (Homo sapiens, UniProt P07711); experiment: cathepsin L inhibitors, dose response, counter-screen for M1/M17 aminopeptidase inhibitor project, biochemical, QFRET, 1536-well (AID 2214)
Aspartyl aminopeptidase = Aspartyl aminopeptidase (Plasmodium falciparum 3D7, UniProt Q8I2J3); experiment: Counterscreen for inhibitors of M1 and M17 aminopeptidases: QFRET-based biochemical high throughput dose response assay for inhibitors of the Plasmodium falciparum M18 Aspartyl Aminopeptidase (PFM18AAP). [Related PubChem assays: 1619 (Screening assay (M17LAP inhibitors).), 1445 (Screening assay (M1AAP inhibitors).)]
[8] = target: T5, Serine/threonine-protein phosphatase (Candida dubliniensis (strain CD36 / CBS 7987 / NCPF 3949 / NRRLY-17841) (Yeast), UniProt B9W6M3); experiment: calcineurin pathway inhibitors in yeast reporter, dose response, S. cerevisiae, CDRE-lacZ, luminescence, secondary (AID 2388); assay type: functional, cell-based;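 also: yeast reporter cells carrying a calcineurin-responsive lacZ construct stimulated with calcium chloride; luminescent beta-galactosidase reporter signal in whole cells rather than isolated phosphatase activity; potency for inhibition where a drop in reporter signal means calcineurin blockade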
T5 sequence (B9W6M3 whole entry): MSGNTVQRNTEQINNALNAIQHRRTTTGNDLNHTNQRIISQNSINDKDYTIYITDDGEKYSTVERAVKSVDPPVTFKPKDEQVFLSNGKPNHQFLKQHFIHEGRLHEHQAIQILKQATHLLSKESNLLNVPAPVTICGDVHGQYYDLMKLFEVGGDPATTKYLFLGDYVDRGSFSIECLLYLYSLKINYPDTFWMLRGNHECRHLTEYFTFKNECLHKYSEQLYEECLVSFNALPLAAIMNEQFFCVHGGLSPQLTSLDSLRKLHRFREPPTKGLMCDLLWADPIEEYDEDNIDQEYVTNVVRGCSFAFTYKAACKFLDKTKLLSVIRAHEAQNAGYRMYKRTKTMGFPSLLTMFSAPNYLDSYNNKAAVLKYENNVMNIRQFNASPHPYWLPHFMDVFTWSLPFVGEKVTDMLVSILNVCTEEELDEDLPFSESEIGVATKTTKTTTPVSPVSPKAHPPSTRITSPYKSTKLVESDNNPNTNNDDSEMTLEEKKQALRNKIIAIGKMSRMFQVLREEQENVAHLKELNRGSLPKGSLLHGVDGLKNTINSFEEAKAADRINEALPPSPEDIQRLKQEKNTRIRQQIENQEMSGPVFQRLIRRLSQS

Staphylococcus aureus = experiment: Inhibitors of Bacterial Quorum Sensing Structure Activity Relationship (SAR) Analysis: Dose Response Assay. [Related pubchem assays: 700, 527 ]; assay type: functional, organism-based
[9] = NIH-3T3 fibroblast cytotoxicity, dose response, cytotoxicity control, cell-based, fluorescence, Alamar Blue, secondary assay (AID 2327); assay type: functional;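 also: NIH-3T3 mouse fibroblasts cultured with fluconazole at 8 µg/mL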
[10] = target: FAD-linked sulfhydryl oxidase ALR (Homo sapiens, UniProt P55789); experiment: inhibitors of human ALR sulfhydryl oxidase, dose response, biochemical, H2O2 detection, luminescence, cherry-pick (AID 493248)
[11] = target: ATP-dependent molecular chaperone HSP82 (Candida albicans (strain WO-1) (Yeast), UniProt C4YTQ8); experiment: loss of DOC-induced GRE-beta-galactosidase reporter signal, dose response, Hsp90 inhibitor project, S. cerevisiae, luminescence (AID 2400); assay type: functional, cell-based;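 also: beta-galactosidase luminescence from glucocorticoid response element reporter as proxy for Hsp90 function; inhibitor potency where signal loss means Hsp90 inhibition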
[12] = C. albicans growth with fluconazole, confirmation, fluorescence, retest (AID 2467); assay type: functional, cell-based
[13] = A High Throughput Confirmatory Assay used to Identify Novel Compounds that Inhibit Mycobacterium Tuberculosis in the absence of Glycerol.; assay type: functional
cells [14] = assay type: functional
[15] = target: Peroxisome proliferator-activated receptor gamma/Nuclear receptor corepressor 2 (Homo sapiens, UniProt P37231+Q9Y618); assay type: functional
cells [16] = experiment: cells
[17] = target: Photoreceptor-specific nuclear receptor (Homo sapiens, UniProt Q9Y5X4); assay type: functional;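 also: potency for compounds that break the NR2E3 corepressor complex and count as activators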
Major prion protein = Major prion protein (Homo sapiens, UniProt P04156); assay type: functional, cell-based
[18] = A cytotoxicity screen of small molecule inhibitors of the PhoP region in Salmonella typhi identified in the primary screen. [Related pubchem assays: 1850, 1864, 1985 ]; assay type: functional
[19] = inhibitors of firefly luciferase expression or activity, dose response, H4 neuroglioma cells, luminescence (AID 1990); assay type: functional, cell-based
[20] = inhibitors of SNCA 5'UTR-driven reporter translation, confirmation, H4 neuroglioma cells, luminescence (AID 1988); assay type: functional, cell-based
[21] = microbe, parasite or virus in culture; assay type: functional; conditions: Mycobacterium tuberculosis

With `CCCCCC1(C)NC(=S)N(c2ccccc2)N1` (centres undefined) the IC50 [1] was > 50 µM (not active).
In the case of `CN(C)c1ccc(N/C=C/C(=O)c2ccco2)cc1`, the EC50 (HT-1080) is reported as > 50 µM (not active), the EC50 [2] is reported as < 0.2 µM (active) and the EC50 [3] is reported as 0.891 µM (active). The IC50 (Protein skinhead-1) was 76.5 µM (inactive) and the EC50 [4] was 1.9 µM (active).
For `Cc1cc(=O)oc2cc(OC(=O)c3ccccc3)ccc12`, the IC50 [5] was > 43.8 µM (not active).
With `COc1ccccc1CNC(=O)c1ccc2nc3[nH]c4ccccc4c3nc2c1` the IC50 [6] was > 111 µM (not active) and the IC50 [7] was 14.4 µM (not active).
For `Fc1ccc(CSc2ncnc3c2oc2ccccc23)cc1`, the IC50 (Estrogen receptor beta) was > 50 µM (not active).
With `CC(C)c1ccc(NC(=O)C2CCCCC2C(=O)O)cc1` (centres undefined) the IC50 (Leucine aminopeptidase) was 3.51 µM (active), the IC50 (Procathepsin L) was > 59.6 µM (not active) and the IC50 (Aspartyl aminopeptidase) was > 73.5 µM (not active).
With `O=C1CSC(NC(=O)N2c3ccccc3Sc3ccccc32)=N1` the EC50 [8] was > 180 µM (inactive), the IC50 (Staphylococcus aureus) was 0.278 µM (active) and the EC50 [9] was > 150 µM (inactive). For the same compound, the AC50 [10] was 0.335 µM (active), the EC50 [11] was > 150 µM (inactive) and the EC50 [12] was 2.32 µM (active).
In the case of `CCCCCC1CC(CC(=O)NC(=S)Nc2ccc([N+](=O)[O-])cc2)C(=O)O1` (centres undefined), the IC50 [13] is reported as > 100 µM (active) and the IC50 (cells [14]) is reported as 20.3 µM (active).
In the case of `Brc1cc(Br)c2ncnc(N3CCCCC3)c2c1`, the IC50 [15] is reported as 2.36 µM (active), the IC50 (cells [16]) is reported as > 138 µM (inactive) and the IC50 [17] is reported as 1.42 µM (active). For the same compound, the IC50 (Major prion protein) was 1.38 µM (active).
With `O=C(CCCCCNc1nc(S)nc2ccccc12)NCCc1ccc(Cl)cc1` the IC50 [6] was > 111 µM (not active) and the IC50 [7] was 13.4 µM (not active).
With `Cc1cc(C)c[n+](CC(=O)c2ccc(NC(=O)c3ccccc3)cc2)c1` the EC50 [18] was > 50 µM (active).
With `CCN(CC)S(=O)(=O)c1ccc(/C(O)=C(\C#N)c2nc3ccccc3n2C)cc1` the EC50 [19] was > 120 µM (not active), the EC50 [18] was > 50 µM (active) and the EC50 [20] was > 120 µM (not active).
In the case of `O=C1NCC(c2ccccc2)C1C(=O)N/N=C\c1ccc(-c2ccc(Cl)c(Cl)c2)o1` (centres undefined), the IC50 [13] is reported as > 100 µM (active) and the CC50 [21] is reported as > 40 µM (active).
For `Cc1ccc(Cl)c(Nc2ccccc2C(=O)O)c1Cl` [MECLOFENAMIC ACID], the IC50 (Staphylococcus aureus) was 0.877 µM (active).
